# Assay results reported in paper PMC8921294, “Inhibition of mitochondrial LonP1 protease by allosteric blockade of ATP binding and hydrolysis via CDDO and its derivatives” (The Journal of Biological Chemistry, 2022).
# Target: T1, LonP1^R721G (Homo sapiens, UniProt P36776, R721G)
# T1 construct: hexa-histidine (N); made in house; host or cells: Rosetta 2 E. coli
# T1 sequence (P36776 68-959 R721G): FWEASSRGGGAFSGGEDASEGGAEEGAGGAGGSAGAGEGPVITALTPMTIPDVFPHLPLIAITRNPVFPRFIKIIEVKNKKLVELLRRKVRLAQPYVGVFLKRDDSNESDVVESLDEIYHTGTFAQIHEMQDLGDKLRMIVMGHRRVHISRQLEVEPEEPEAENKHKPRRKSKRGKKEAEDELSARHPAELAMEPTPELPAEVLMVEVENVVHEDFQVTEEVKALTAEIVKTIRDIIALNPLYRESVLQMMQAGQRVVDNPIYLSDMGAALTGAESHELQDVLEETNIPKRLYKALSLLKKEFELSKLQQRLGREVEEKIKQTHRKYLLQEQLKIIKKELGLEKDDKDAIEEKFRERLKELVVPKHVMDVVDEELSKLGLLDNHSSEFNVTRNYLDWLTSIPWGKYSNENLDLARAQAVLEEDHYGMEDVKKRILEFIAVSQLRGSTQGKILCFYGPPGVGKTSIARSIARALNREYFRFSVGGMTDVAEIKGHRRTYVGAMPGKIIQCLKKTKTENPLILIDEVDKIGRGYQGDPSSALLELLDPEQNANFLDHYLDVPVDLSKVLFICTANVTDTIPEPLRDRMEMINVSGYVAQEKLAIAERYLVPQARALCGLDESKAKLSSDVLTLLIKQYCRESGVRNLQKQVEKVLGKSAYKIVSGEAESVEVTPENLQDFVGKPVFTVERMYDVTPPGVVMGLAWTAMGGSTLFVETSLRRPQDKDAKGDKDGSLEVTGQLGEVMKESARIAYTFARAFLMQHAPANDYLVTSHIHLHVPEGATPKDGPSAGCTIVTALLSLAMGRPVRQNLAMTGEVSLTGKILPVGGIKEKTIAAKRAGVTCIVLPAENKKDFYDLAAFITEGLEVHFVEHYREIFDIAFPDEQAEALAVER
# Test: NADH-coupled ATPase assay, CODAS mutant LonP1^R721G
# Format: biochemical
# Settings: compound 20 μM
# Protocol: Figure 2 The ATPase activity of wild-type LonP1^WTis blocked by CDDO-Me and CDDO-anhydride by noncompetitive and competitive inhibition, respectively, whereas the CODAS mutant LonP1^R721GATPase is resistant to inhibition. ATPase activities were measured using an NADH-coupled ATPase assay. Wild type and mutant LonP1 proteins (400 nM) were pre-incubated with or without compound for 30 min at room temperature. A and E, LonP1^WT, and (H and I) comparison of LonP1^WT and LonP1^R721G. ATP was titrated and its hydrolysis was measured over 5 min (mean ± S.D., N ≥ 2). B and F, double-reciprocal Lineweaver–Burk plots (mean ± S.D., N ≥ 2). C and G, determination of Ki (mean ± S.D., N ≥ 2). D, determination of αKi (mean ± S.D., N ≥ 2). C, G and H. mean values obtained from linear regression data. CDDO, 2-cyano-3,12-dioxooleana-1,9(11)-dien-28-oic acid.
# ATPase reactions (200 μl total) were performed in 96-well plates at room temperature. LonP1 (400 nM monomer) was preincubated with DMSO (1–2%) vehicle control or CDDO derivatives in buffer (50 mM HEPES-KOH pH 7.5, 5 mM magnesium acetate, 75 mM potassium acetate) for 30 to 45 min at room temperature or 30 °C. […] The change in NADH absorbance at 340 nm was monitored in Spectramax plate reader for 5 min to obtain reaction velocities. […]
row,SMILES,Inhibition of LonP1^R721G ATPase compared with LonP1^WT
1,COC(=O)[C@]12CCC(C)(C)C[C@H]1[C@H]1C(=O)C=C3[C@@]4(C)C=C(C#N)C(=O)C(C)(C)[C@@H]4CC[C@@]3(C)[C@]1(C)CC2 [CDDO-Me],showed resistance
2,CC1(C)CC[C@]2(C(=O)OC(=O)[C@]34CCC(C)(C)C[C@H]3[C@H]3C(=O)C=C5[C@@]6(C)C=C(C#N)C(=O)C(C)(C)[C@@H]6CC[C@@]5(C)[C@]3(C)CC4)CC[C@]3(C)[C@H](C(=O)C=C4[C@@]5(C)C=C(C#N)C(=O)C(C)(C)[C@@H]5CC[C@]43C)[C@@H]2C1 [CDDO-anhydride],showed resistance
